2 molecules from article doi:10.1101/2022.12.07.519454v2 (biorxiv, 2023) can be followed below.

As usually defined, the Ki is a measure of affinity in units of concentration, obtained from inhibition or displacement. Higher therefore signals lower affinity. Broadly, the IC50 is the concentration that gives 50% inhibition. A low value points to greater potency in that assay.

The target in assay [1] is T1, yeast Sin3 PAH2 domain (Saccharomyces cerevisiae, UniProt P22579).
T1 sequence (P22579 402-473): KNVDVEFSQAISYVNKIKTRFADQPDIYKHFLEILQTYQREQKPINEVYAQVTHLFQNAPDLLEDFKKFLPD
Description: fluorescence polarization displacement of FITC-Ume6 SID. The format is binding. (In general: In fluorescence polarisation assays a small probe gives low polarisation when free and higher when bound to something large.)

In assay [2] the target is T1, yeast Sin3 PAH2 domain. Put plainly: fluorescence polarization displacement of FITC-Ume6 SID peptide. Format: binding.

In assay [1], `C[C@@H](NC(=O)C1C(=O)N=C2C=CC=CN2C1O)c1ccccc1` (stereo partly drawn) [E6R, 4-hydroxy-2-oxo-N-((R)-1-phenylethyl)-3,4-dihydro-2H-pyrido[1,2-a]pyrimidine-3-carboxamide] displayed an inhibition constant Ki of 16.1 µM. Moreover, in assay [2], the IC50 was determined as 74.5 ± 7.2 µM.
Taken in the same sequence, the figures for `C[C@H](NC(=O)C1C(=O)N=C2C=CC=CN2C1O)c1ccccc1` (stereo partly drawn) [E6S, 4-hydroxy-2-oxo-N-((S)-1-phenylethyl)-3,4-dihydro-2H-pyrido[1,2-a]pyrimidine-3-carboxamide] were 38.5 µM and 174 ± 21.9 µM.
